The values below come from patent EP0037777A1, “Process for preparation of cycloalcoyl propanol amines useful as medicine” (PIERRE FABRE S.A., priority 1980, dated 1981).

Structures are written as SMILES. ≈ marks a conversion by molar mass, not a printed value. Counter-ions that a name gives are not always drawn.

The nature of the data set: Solubility. It counts as physicochemical. The note with it: for Solubilités : soluble dans le diméthyl sulfoxyde: in dimethyl sulfoxide (DMSO); for solubility: in water, read-out: Solubilités : soluble dans l'eau.

For the compound `CC1CCCCC1OCC(O)CNC(C)(C)C` (centres unmarked) [Exemple 1, tertiobutylamino-3 (méthyl-2 cyclohexyloxy)-1 propanol-2, maléate], the “Solubilités : soluble dans le diméthyl sulfoxyde” value (“Solubilités ” below) amounted to 15% and the solubility was determined as 100 mg/mL (≈ 411 mM). `C#CC(C)(C)NCC(O)COC1CCCCC1` (centres unmarked) [Exemple 3, (diméthyl-1,1 propyne-2 yl-1) amino-3, cyclohexyloxy-1 propanol-2 oxalate]: the solubility amounted to 20 mg/mL. Turning to `CC(C)NCC(O)COCC1CCCCC1` (centres unmarked) [Exemple 4, isopropylamino-3, cyclohexyl méthoxy-1 propanol-2 maléate], the “Solubilités ” value was determined as 18% and the solubility is 100 mg/mL (≈ 436 mM). The corresponding values for `CC(C)(C)NCC(O)COCC1CCCCC1` (centres unmarked) [Exemple 5, tertiobutylamino-3 cyclohexyl méthoxy-1, propanol-2, maléate] are 10% and 25 mg/mL (≈ 103 mM).

As for `CC(C)(C)NCC(O)COCCC1=CCC2CC1C2(C)C` (centres unmarked) [Exemple 6, tertiobutylamino-3 [(diméthyl-6-6, bicyclo (3,1,1)hepten-2 yl)-2 éthoxy7-1 propanol-2, maléate], the “Solubilités ” value is on record as 10% and the solubility came to 20 mg/mL (≈ 67.7 mM).

On to `CC(C)(C)NCC(O)COCC1CC=CCC1` (centres unmarked) [Exemple 8, tertiobutylamino-3 (cyclohexen-3 yl-1) méthoxy-1 propanol-2, maléate], for which the “Solubilités ” value was found to be 15% and the solubility is 100 mg/mL (≈ 414 mM).
